Non-standard residues stand in square brackets, D forms with d. Residues, ends and D or L forms follow the SMILES beside them. *: point of attachment. 3Amb = NCc1cccc(C(=O)O)c1; 4Amb = NCc1ccc(C(=O)O)cc1; Cbz = O=C(OCc1ccccc1)*; NHOH = ON*
Experiments:
[1] = biological target: T1, Protein deacetylase HDAC6 (Homo sapiens, UniProt Q9UBN7); assay: Inhibition of HDAC6 CD2 domain (unknown origin)
T1 sequence (Q9UBN7 whole entry): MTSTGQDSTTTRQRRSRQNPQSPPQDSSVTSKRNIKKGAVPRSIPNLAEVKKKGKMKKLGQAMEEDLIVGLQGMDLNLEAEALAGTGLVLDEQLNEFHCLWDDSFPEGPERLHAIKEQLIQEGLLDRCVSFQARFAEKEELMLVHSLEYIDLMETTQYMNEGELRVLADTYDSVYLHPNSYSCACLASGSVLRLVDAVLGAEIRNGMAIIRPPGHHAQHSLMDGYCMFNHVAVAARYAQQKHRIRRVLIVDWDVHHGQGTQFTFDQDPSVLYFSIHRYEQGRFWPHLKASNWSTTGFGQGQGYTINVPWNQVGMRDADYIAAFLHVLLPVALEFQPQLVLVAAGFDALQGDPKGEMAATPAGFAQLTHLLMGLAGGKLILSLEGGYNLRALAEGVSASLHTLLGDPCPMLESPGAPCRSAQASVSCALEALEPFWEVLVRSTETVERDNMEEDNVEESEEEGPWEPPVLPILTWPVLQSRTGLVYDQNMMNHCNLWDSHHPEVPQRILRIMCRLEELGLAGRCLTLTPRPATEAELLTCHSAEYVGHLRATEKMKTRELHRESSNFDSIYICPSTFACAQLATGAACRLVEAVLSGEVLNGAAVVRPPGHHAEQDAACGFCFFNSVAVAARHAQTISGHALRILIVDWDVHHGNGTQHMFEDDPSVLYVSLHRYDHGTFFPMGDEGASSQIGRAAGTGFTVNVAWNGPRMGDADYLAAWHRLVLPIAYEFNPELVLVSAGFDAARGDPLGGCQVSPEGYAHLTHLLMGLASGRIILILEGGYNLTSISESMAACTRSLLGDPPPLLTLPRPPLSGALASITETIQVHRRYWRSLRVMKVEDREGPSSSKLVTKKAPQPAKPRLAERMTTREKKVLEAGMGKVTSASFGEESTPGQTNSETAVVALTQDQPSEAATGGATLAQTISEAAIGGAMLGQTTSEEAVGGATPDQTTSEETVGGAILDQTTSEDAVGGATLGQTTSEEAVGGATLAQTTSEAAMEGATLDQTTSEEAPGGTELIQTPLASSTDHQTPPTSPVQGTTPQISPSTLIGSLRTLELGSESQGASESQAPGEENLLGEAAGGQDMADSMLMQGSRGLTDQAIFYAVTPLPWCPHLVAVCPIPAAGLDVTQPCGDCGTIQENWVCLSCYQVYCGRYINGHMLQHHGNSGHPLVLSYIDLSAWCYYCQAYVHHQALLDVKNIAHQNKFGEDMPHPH

[2] = biological target: T1, Protein deacetylase HDAC6; assay: Inhibition of human N-terminal GST-tagged HDAC6 expressed in baculovirus infected insect cells using RHKKAc as substrate
[3] = biological target: T1, Protein deacetylase HDAC6; assay: Inhibition of recombinant C-terminal FLAG-tagged HDAC6 (unknown origin) using Ac-NH-GGK(Ac)-AMC as substrate measured after 180 mins by fluorescence assay

| IC50 [1] [nM] | IC50 [2] [nM] | Structure (SMILES) | also measured |
| --- | --- | --- | --- |
| 8420 |  | CC(C)C[C@H](NC(=O)OCc1ccccc1)C(=O)N[C@@H](C)C(=O)NCc1cccc(C(=O)NO)c1 (Cbz-Leu-Ala-[3Amb]-{NHOH}) |  |
| 335 |  | O=C(CNC(=O)CNC(=O)OCc1ccccc1)NCc1ccc(C(=O)NO)cc1 (Cbz-Gly-Gly-[4Amb]-{NHOH}) |  |
|  | 314 | CC(C)C[C@H](NC(=O)OCc1ccccc1)C(=O)N[C@@H](C)C(=O)NCc1ccc(C(=O)NO)cc1 (Cbz-Leu-Ala-[4Amb]-{NHOH}) |  |
|  | 17 | O=C(NO)c1ccc(CNC(=O)c2cccnc2C(F)(F)F)cc1 |  |
|  |  | CN(C)Cc1ccc(S(=O)(=O)n2ccc(/C=C/C(=O)NO)c2)cc1 [RESMINOSTAT] | IC50 [3]: 72 nM |

| Structure (SMILES) | IC50 [1] [nM] | IC50 [2] [nM] | also measured |
| --- | --- | --- | --- |
| CC1(C)[C@@H]2CC[C@@H](CNCc3ccc(C(=O)NO)cc3)[C@H]1C2 | 149 |  |  |

From ChEMBL document CHEMBL4321863, “Exploring Structural Determinants of Inhibitor Affinity and Selectivity in Complexes with Histone Deacetylase 6” (J Med Chem, 2020)
